How the values were obtained:
Format in all cases: functional, cell-based
WiDr = assay: In vitro cytotoxicity causing 50% growth inhibition was determined against WiDr (human colon carcinoma) cell line
[1] = system: Lewis lung carcinoma cell line; assay: In vitro cytotoxicity causing 50% growth inhibition was determined against LL (murine non small cell lung cancer) cell line; settings: Mus musculus
A2780 = assay: In vitro cytotoxicity causing 50% growth inhibition was determined against […] (human ovarian cancer)cell line
Colon 26 = assay: In vitro cytotoxicity causing 50% growth inhibition was determined against C26-10 (murine colon carcinoma) cell line; settings: Mus musculus
H322 = assay: In vitro cytotoxicity causing 50% growth inhibition was determined against H322 (human non small cell lung cancer) cells; settings: NCI-H322
UMSCC22B = assay: In vitro cytotoxicity causing 50% growth inhibition was determined against 22B (human head and neck squamous) cell line

CCCCCCCCCCCCCCC(COS(C)(=O)=O)OS(C)(=O)=O (stereo not drawn)
IC50 (WiDr): 25.6 µM | IC50 [1]: 28.4 µM | IC50 (A2780): 45.5 µM | IC50 (Colon 26): 31 µM | IC50 (H322): 59.7 µM | IC50 (UMSCC22B): 46.5 µM

CS(=O)(=O)OCCCCOS(C)(=O)=O [BUSULFAN]
IC50 (WiDr): > 100 µM | IC50 [1]: > 100 µM | IC50 (A2780): > 100 µM | IC50 (Colon 26): 92.5 µM | IC50 (H322): > 100 µM | IC50 (UMSCC22B): > 100 µM

CCCCCCCCCCCCCCC(CCOS(C)(=O)=O)COS(C)(=O)=O (stereo not drawn)
IC50 (WiDr): 24.9 µM | IC50 [1]: 20.8 µM | IC50 (A2780): 25.9 µM | IC50 (Colon 26): 26.3 µM | IC50 (H322): 25.1 µM | IC50 (UMSCC22B): 26.4 µM

Source: ChEMBL document CHEMBL1134004, “Synthesis and in vitro cytotoxicity of novel long chain busulphan analogues” (Bioorg Med Chem Lett, 2001)
